Laboratory results: patent US8822542B2, “Isoketal scavengers and mitigation of disorders involving oxidative injury” (Vanderbilt University, priority 2005, dated 2014)
Entries after “also recorded” stand apart in the source; their conditions may differ.

How the values were obtained:
[1] = Second order rate of pyrrole formation with the model γ-ketoaldehyde 4-oxopentanal; type: biochemical
Protocol: The present inventors determined the approximate second order rate constants of different amines for pyrrole formation with […], a γ-ketoaldehyde.
These compounds are tested for the rate of pyrrole formation when incubated with the γ-ketoaldehyde, 4-oxopentanal. […] Ehrlich reagent may be used to detect levels of pyrroles.
All rates are shown relative to N-α-acetyl-lysine.

[2] = target: human cardiac Na channel (hH1, or SCN5A) (Homo sapiens, UniProt Q14524); test: Whole-cell Na current recording, wild-type hH1 expressed in HEK-293 cells; details: HEK-293; t-BHP 1 mM, Iso-K 10 μM, flecainide 1 μM
[3] = test system: proteasome; test: Hydrolysis of fluorogenic substrate VKM-amc by proteasome containing cell lysates; type: biochemical; details: equimolar adduction of VKM-amc
[4] = target: ovalbumin (OVA) (Gallus gallus, UniProt P01012); test: Protein cross-linking after incubation with ovalbumin; type: biochemical; details: 10 molar equivalents, about 4 hours
Source text: The above findings explained why repeated attempts in the past to detect free IsoKs during oxidation of biological systems in vitro, e.g. microsomes, and in animal models of oxidant injury in vivo were unsuccessful because they are rapidly sequestered as protein adducts. Therefore, the present inventors undertook to determine the identity of IsoK lysyl adducts as a basis for development of methodology to detect IsoK and NeuroK adducts in biological tissues in their adducted form. […] Reversible Schiff base adducts were also identified. Schiff base adducts are formed rapidly and then decline over time, whereas lactam adducts accumulate slowly over time. Lysyl protein adducts of IsoKs and NeuroKs are analyzed by LC/MS/MS following enzymatic digestion of proteins to individual amino acids. Enzymatic digestion of proteins is necessary because the adducts degrade during acid hydrolysis. However, this analysis is further complicated by the proclivity of IsoKs and NKs to induce protein crosslinking, which is resistant to hydrolysis. […] This is a dramatic example of the differential effects of IsoKs/NKs and HNE on protein adduction and cross-linking.

[5] = target: bovine serum albumin (Bos taurus, UniProt P02769); test: Disappearance of free IsoK and HNE during incubation with bovine serum albumin (rate of adduction); type: biochemical; details: after 80 minutes
Protocol: Oxidation of AA in vitro produces both F2-IsoPs and IsoKs in nearly equivalent amounts. However, comparison of the formation of F2-IsoPs and IsoKs in vivo is more complex, because IsoKs rapidly adduct to lysyl residues on proteins. […] In striking contrast, approximately 50% of the HNE still remained in free form after 80 minutes.

[6] = test system: HepG2 cell; test: Cellular viability of HepG2 cells exposed to hydrogen peroxide; type: cell-based
[7] = Lipophilicity / penetration into nonpolar environments; type: physicochemical
[8] = test system: mice subjected to ligation of the left anterior coronary artery; test: Myocardial infarction by coronary ligation in mice; type: in vivo, mouse
Source text: (§1) In a series of experiments, the present inventors have tested the effect of the γ KA scavenger salicylamine (SA) in mice subjected to ligation of the left anterior coronary artery resulting in a myocardial infarction. All experiments were done in blinded fashion regarding the treatment group (SA versus placebo (water)). Mice received drinking water containing either SA (1 g/l) or no drug for three days prior to coronary ligation and for 7 days afterwards.
The present inventors examined the effect of SA treatment on Lys-lactam protein adduct formation. Mouse hearts were harvested 7 days after coronary ligation and the atria and the right ventricular free wall were removed. The remainder of each heart (LV free wall and septum) was then cut into two, roughly equal tissue specimens of ˜50 mg wet weight: The anterior-apical part contained the infarct and the peri-infarct border zone (MI+borderzone), and the posterior-basal part was unaffected (Remote). The tissue content of Lys-lactam protein adducts was quantified using our LC MS^2 based analytical technique.

[9] = Oxidation of arachidonic acid in the presence of scavenger and 10 molar excess of lysine; type: biochemical; details: for levels of Lys-lactam adduct formed: compared to vehicle
Source text: The amounts of each of these adducts to the amount of γ KA adduct formed were normalized. […] Because cardiac ion channels are embedded in cellular membranes, the ability to penetrate into membranes is critical.

[10] = SA in the drinking water of mice: concentrations and tolerability; type: in vivo, C57BL6 mice
Protocol: as §1
SA was tested to determine whether it could be used in vivo. 1 g/L or 5 g/L salicylamine was added to the drinking water of C57BL6 mice for 5 days and then harvested plasma and liver from the animals. SA was measured by monitoring absorption at 259 nm after derivatization with 1,1′-thiocarbonyldiimidazole.

[11] = test system: transgenic humanized apoE4 mice (hApoE4); test: Water radial arm maze in transgenic humanized apoE4 mice; type: in vivo, mouse; parameters: dose or concentration left out as unconfirmed; details: water containing SA, six months, tested at 12 months of age
Source text: Starting at six months of age, wild-type (C57) and transgenic humanized apoE4 mice (hApoE4) were given either standard water or water containing […] SA (+SA) as their only source of drinking water. At this time, animals were also switched from standard chow diets to either a sufficient amino acid based diet (suff) or an amino-acid based diet insufficient in choline, methionine, and folate, and enriched in homocysteine (HC). All animals were fed diets and drinking water for six months (to 12 months of age) prior to testing. The purpose of the HC diet was to attempt to exacerbate oxidative stress in these animals. Because breeding and behavioral testing is extremely time consuming, it was not possible to have sufficient animals for each group in a single cohort and still perform adequate behavioral testing. Therefore two separate cohorts of animals (A & B) were raised and tested about two month apart. […]
The water radial arm maze test requires a mouse to find a hidden platform placed in one of six maze arms. […] If the mouse enters an arm without the platform, an error is scored and the mouse is dragged by the tail back to the start arm and released. […] If a mouse swims in the central area for 12 sec without picking an arm, an error is also scored and the animal is dragged back to the start arm and released. […]

[12] = test system: F2-IsoPs in renal vein plasma; details: 1 mM in the drinking water, chronic oral; cited from earlier work
[13] = test system: plasma concentrations of F2-IsoPs; test: Porcine model of global ischemia/reperfusion (cardiac arrest and CPR), plasma F2-IsoPs; type: in vivo; details: 30 mg/kg intravenous, single dose during CPR
Protocol: The present inventors chose antioxidants to test in the models of AD that we have found effective in suppressing oxidative stress in other animal models of oxidative injury. One model of oxidative injury is the porcine model of global ischemia/reperfusion resulting from induction of cardiac arrest for 3 mins followed by cardiopulmonary resuscitation (CPR). Shown in FIG. 25 are results using this model. As shown, cardiac arrest followed by CPR induced a dramatic increase in plasma concentrations of F2-IsoPs. […] This study involved the administration of a single dose of Tempol. Shown in FIG. 26 is data taken from a report from Ortiz, et. al. in which they assessed the ability of chronic oral administration of TEMPOL (1 mM in the drinking water) to suppress the increase in F2-IsoPs induced by chronic IV infusion of angiotensin II. […] Tempol is one of the antioxidants of the present invention.

[14] = test system: patients convalescing from myocardial infarction; details: in vivo; cited from earlier work
[15] = test system: 20S proteasome; test: Degradation of adducted ovalbumin by purified 20S proteasome; type: biochemical
[16] = target: 20S proteasome (Homo sapiens, UniProt P28074); test: Inhibition of 20S proteasome chymotrypsin-like activity (LLVY-amc hydrolysis); type: biochemical
Source text: Because nondegradable substrates often act as competitive inhibitors, the inventors tested whether E2-IsoK adducted proteins would inhibit proteasome chymotrypsin-like activity as measured by hydrolysis of a fluorogenic substrate, LLVY-amc.

[17] = test system: plasma concentrations of F2-IsoPs; test: Vitamin E supplementation, plasma F2-IsoPs in subjects with hypercholesterolemia; type: in vivo, human
Protocol: The use of antioxidants to suppress oxidative injury: An important aspect of antioxidant clinical trials that has not received sufficient attention until recently, is the scientific rational for the choice of a particular antioxidant to test, the dose to test, and the duration of treatment. […] This was a key finding because the literature is abound with studies in which have vitamin E was administered for less than 10 weeks to determine its effects on some pathologic process. […] This is an important finding because many studies of the effects of vitamin E have used doses of 400 I.U./d and observed no benefit.

[18] = test system: progression of AD; details: 2000 I.U./d; cited from earlier work

Chain of human cardiac Na channel (hH1, or SCN5A) (Q14524 whole entry): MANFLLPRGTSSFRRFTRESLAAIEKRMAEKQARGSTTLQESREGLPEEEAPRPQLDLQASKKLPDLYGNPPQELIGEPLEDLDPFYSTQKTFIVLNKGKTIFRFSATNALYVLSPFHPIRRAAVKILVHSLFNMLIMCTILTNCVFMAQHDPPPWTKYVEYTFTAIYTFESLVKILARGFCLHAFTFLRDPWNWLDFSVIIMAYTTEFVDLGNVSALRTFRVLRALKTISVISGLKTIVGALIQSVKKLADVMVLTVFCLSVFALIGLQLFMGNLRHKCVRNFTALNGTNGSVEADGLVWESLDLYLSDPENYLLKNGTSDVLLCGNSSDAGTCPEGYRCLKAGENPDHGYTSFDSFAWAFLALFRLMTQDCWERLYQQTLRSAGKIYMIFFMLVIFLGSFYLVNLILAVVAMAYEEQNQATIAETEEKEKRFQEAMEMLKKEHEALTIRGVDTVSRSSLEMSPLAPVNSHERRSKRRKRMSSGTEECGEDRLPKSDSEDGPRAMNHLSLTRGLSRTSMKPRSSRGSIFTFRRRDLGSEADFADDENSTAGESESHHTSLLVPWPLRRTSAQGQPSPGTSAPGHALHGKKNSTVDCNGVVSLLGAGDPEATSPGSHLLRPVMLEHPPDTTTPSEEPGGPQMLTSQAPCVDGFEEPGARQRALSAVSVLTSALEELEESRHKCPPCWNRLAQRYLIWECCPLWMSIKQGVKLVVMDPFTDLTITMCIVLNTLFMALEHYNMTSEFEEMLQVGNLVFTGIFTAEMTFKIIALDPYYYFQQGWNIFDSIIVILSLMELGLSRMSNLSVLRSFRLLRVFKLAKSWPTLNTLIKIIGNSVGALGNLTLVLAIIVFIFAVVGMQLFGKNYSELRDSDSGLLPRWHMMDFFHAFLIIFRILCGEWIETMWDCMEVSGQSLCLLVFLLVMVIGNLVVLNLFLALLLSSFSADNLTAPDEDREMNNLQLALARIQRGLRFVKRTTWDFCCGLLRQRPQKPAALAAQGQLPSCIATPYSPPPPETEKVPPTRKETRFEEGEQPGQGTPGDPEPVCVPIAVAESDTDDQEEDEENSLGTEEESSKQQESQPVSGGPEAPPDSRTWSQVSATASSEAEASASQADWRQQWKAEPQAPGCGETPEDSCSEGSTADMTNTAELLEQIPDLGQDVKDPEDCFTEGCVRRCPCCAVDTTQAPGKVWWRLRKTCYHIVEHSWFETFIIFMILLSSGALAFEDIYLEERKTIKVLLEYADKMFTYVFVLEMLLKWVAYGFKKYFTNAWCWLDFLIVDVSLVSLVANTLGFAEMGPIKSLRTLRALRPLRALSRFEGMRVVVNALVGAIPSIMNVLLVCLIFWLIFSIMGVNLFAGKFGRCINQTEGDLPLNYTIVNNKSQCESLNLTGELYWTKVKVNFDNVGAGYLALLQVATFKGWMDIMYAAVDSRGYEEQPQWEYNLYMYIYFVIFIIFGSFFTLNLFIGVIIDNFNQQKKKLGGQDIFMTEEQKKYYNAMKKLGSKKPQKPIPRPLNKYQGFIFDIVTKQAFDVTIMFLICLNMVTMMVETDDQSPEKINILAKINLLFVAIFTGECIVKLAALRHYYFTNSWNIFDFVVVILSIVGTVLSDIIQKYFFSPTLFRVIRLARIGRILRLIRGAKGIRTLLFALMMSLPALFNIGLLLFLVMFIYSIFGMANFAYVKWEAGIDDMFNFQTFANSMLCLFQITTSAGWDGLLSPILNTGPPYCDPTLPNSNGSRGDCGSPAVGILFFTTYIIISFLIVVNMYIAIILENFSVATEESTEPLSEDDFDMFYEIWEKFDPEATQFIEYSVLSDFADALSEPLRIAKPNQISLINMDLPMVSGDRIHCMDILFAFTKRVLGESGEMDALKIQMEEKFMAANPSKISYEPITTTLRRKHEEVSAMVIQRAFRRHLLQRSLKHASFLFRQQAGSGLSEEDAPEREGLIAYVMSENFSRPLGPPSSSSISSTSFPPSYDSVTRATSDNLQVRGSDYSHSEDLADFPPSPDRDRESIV
Chain of bovine serum albumin (P02769 25-607): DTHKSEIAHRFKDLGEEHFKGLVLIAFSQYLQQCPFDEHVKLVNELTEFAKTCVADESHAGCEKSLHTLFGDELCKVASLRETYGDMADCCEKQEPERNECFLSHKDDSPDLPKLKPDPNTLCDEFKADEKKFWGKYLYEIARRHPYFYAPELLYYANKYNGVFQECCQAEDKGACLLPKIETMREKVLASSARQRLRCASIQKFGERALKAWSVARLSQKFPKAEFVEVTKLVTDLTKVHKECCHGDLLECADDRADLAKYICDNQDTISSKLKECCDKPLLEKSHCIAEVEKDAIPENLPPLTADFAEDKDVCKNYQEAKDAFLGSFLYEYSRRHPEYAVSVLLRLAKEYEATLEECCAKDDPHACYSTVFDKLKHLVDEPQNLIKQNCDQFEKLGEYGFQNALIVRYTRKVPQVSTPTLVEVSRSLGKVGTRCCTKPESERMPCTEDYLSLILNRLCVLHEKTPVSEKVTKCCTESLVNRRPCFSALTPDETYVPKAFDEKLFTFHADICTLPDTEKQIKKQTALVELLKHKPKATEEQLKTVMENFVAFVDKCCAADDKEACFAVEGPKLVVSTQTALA
Chain of ovalbumin (OVA) (P01012 whole entry, species assumed): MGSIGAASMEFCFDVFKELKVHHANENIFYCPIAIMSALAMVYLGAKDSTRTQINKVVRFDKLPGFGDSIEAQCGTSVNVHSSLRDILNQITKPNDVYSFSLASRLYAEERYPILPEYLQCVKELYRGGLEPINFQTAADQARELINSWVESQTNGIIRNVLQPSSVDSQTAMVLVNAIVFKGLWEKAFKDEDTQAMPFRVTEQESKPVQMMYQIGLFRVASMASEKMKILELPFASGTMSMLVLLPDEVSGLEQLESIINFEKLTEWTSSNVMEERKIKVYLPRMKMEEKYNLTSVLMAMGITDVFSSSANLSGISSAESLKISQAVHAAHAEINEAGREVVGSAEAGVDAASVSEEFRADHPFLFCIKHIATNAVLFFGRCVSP

NCCO [2-aminoethanol]
approximate second order rate constants for pyrrole formation [1]: 3.1e+08 M⁻¹ s⁻¹

NCc1ccc(O)cc1 [4-SA, 4-salicylamine]
scavenging γ KAs [1]: inactive

NCc1ccncc1 [4-picolinylamine]
approximate second order rate constants for pyrrole formation [1]: 0.0011 M⁻¹ s⁻¹

CCCCCC(O)/C=C/C=O (centres unmarked) [HNE, 4-hydroxynonenal]
V1/2 voltage-dependence of inactivation (availability) [2]: −83.7±2.1 mV | hydrolysis of the adducted peptide by proteasome containing cell lysates [3]: no effect on hydrolysis | cross-linking of ovalbumin [4]: no cross-linking was observed | remained in free form [5]: approximately 50%

CC(=O)N[C@@H](CCCCN)C(=O)O [N^αacetyllysine]
approximate second order rate constants for pyrrole formation [1]: 7e+07 M⁻¹ s⁻¹

Cc1ncc(CO)c(CN)c1O [PM, pyridoxamine]
protection of cellular viability [6]: no significant protection | lipophilicity / penetration into nonpolar environments [7]: quite hydrophilic; also recorded: poorly penetrates into nonpolar environments

NCc1ccccc1O [SA, salicylamine]
protection of cellular viability [6]: best protection | lipophilicity / penetration into nonpolar environments [7]: readily dissolve into ethyl acetate; also recorded: most lipophilic scavenger | systolic function, fractional LV shortening (FS) by echocardiography ([8]; 1 g/l in drinking water, 7 days post MI): improved systolic function | Lys-lactam protein adducts in infarct and peri-infarct borderzone ([8]; 7 days after coronary ligation): appears to prevent the adduct formation | infarct size ([8]; hearts harvested 7 days after coronary ligation): significantly reduced infarct size | survival after MI ([8]; p=0.1): trend towards increased survival | levels of F2-IsoP formed [9]: None of the three scavengers reduced | selectivity for γ KA products over other lipid peroxidation products [9]: relatively selectively | levels of Lys-lactam adduct formed [9]: markedly reduced | tolerability of the dosing regimen ([10]; 1 g/l in drinking water): well tolerated | oral bioavailability ([10]; mouse, in vivo, po): orally bioavailable | scavenging γ KAs [1]: very good at scavenging | memory performance (latency, Z-score) [11]: significantly improved the performance | memory performance (latency, Z-score) ([11]; listed as salicylamine): improves memory

CC1(C)CC(O)CC(C)(C)N1[O] [Tempol]
increase in levels of F2-IsoPs in renal vein plasma [12]: completely prevented the increase | increase in plasma levels of F2-IsoPs [13]: completely ablated this increase

COc1ccc(C(=O)Nc2ccccc2CCC2CCCCN2C)cc1 (centres unmarked) [encainide]
mortality increase [14]: three-fold

F2-isoprostane
V1/2 voltage-dependence of inactivation (availability) [2]: −91.4±1.8 mV

IsoK(1)-OVA: ovalbumin adducted with equimolar E2-IsoK
degradation by purified 20S proteasome [15]: nearly in half

IsoK(10)-OVA: ovalbumin adducted with ten molar equivalents of E2-IsoK
degradation by purified 20S proteasome [15]: completely blocked its degradation

IsoK-Aβ1-40: Aβ1-40 adducted with E2-IsoK
IC50 [16]: 1.3 µM

pentylpyridoxamine [PPM]
protection of cellular viability [6]: slightly less protection | levels of F2-IsoP formed [9]: None of the three scavengers reduced | selectivity for γ KA products over other lipid peroxidation products [9]: relatively selectively; also recorded: most selective | levels of Lys-lactam adduct formed [9]: markedly reduced | scavenging γ KAs [1]: very good at scavenging

vitamin E
reduction of F2-IsoP levels ([17]; 800 I.U./d, 18 weeks): about 10% | maximum suppression of plasma F2-IsoPs ([17]; 3200 I.U./d, 18 weeks): 49% | effect on F2-IsoP levels ([17]; doses below 800 I.U./d, 18 weeks): no significant effect | supplementation required to reach the plateau in maximum suppression of plasma F2-IsoPs ([17]; human, in vivo): sixteen | effect to slow the progression of the disease [18]: modest effect
